Earlier results as cited in patent publication US3955959A, “Herbicide for use in transplanted rice” (priority 1974, dated 1976).

Columns and labels:
rice = conditions: prior art; cited from earlier work
weeds in rice fields = conditions: prior art; cited from earlier work

| Compound | crop safety (rice) | spectrum of weed control (weeds in rice fields) |
| --- | --- | --- |
| CC(C)Oc1cc(-n2nc(C(C)(C)C)oc2=O)c(Cl)cc1Cl [2-tert-butyl-4-(2,4-dichloro-5-isopropyloxyphenyl)-5-oxo-1,3,4-oxadiazoline] | marginal crop safety | – |
| CCSC(=O)N1CCCCCC1 [S-ethyl hexahydro-1H-azepine-1-carbothioate] | – | narrow spectrum of weed control |
